This note sets out measurements from paper PMC6895199, “A new antiviral scaffold for human norovirus identified with computer-aided approaches on the viral polymerase” (Scientific Reports, 2019).

The target in this experiment is HuNoV (GII.4) RdRp (Norovirus Hu/GII.4/Sydney/NSW0514/2012/AU, UniProt K4L8Z7). Briefly: Quantitative fluorescent RdRp activity assay (PicoGreen, poly(C) template). The experiment is classed as biochemical, human norovirus Sydney 2012. The note with it: 20 µM; for inhibition at 20 µM: read-out: inhibition of HuNoV RdRp activity at fixed concentration. Put shortly:
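Enzyme (400 ng) preincubated with compound 10 min at 30 °C, then reacted 15 min at 30 °C with 45 μM GTP, 10 ng/μL poly(C), 2.5 mM MnCl2, pH 7.5. Stopped with EDTA; dsRNA quantified by PicoGreen. Six concentrations (0.1–100 µM) gave IC50, or single 20 µM screen vs 0.5% DMSO.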

Each structure is given as a SMILES string.

`O=C(NC(=S)Nc1ccc(N2CCN(C(=O)c3cccs3)CC2)cc1)c1sc2ccccc2c1Cl` [Compound 48, 3-Chloro-N-((4-(4-(thiophene-2-carbonyl)piperazin-1-yl)phenyl)carbamothioyl)benzo[b]thiophene-2-carboxamide, reference compound]: the inhibition at 20 µM came out at 20%.
On the same count and under the same terms, for `Cc1ccc(C(=O)NC(=S)Nc2ccc(N3CCN(C(=O)c4cccs4)CC3)cc2)cc1` [Compound 52, 4-Methyl-N-((4-(4-(thiophene-2-carbonyl)piperazin-1-yl)phenyl)carbamothioyl)benzamide] the value was around 15%.
As to `O=C(NC(=S)Nc1ccc(N2CCN(C(=O)c3nccs3)CC2)cc1)c1sc2ccccc2c1Cl` [Compound 56, 3-Chloro-N-((4-(4-(thiazole-2-carbonyl)piperazin-1-yl)phenyl)carbamothioyl)benzo[b]thiophene-2-carboxamide], the “inhibition of HuNoV RdRp activity at fixed concentration” value is “does not affect enzymatic inhibition activity”.
